{"source": "patent US8859511B2", "about": "“Proliferation inhibitor of Helicobacter pylori bacteria” (The Noguchi Institute, priority 2008, dated 2014)", "key": {"[1]": {"test_system": "H. pylori bacteria (ATCC 43504)", "test": "H. pylori bacteria-proliferation inhibitory effect under in vitro (OD values at 600 nm)", "assay_type": "cell-based, Helicobacter pylori"}, "[2]": {"test_system": "H. pylori bacteria (ATCC 43504 strain)", "test": "Count of viable H. pylori bacteria (colony count) from stomach of orally infected meriones unguiculatus", "assay_type": "in vivo", "from_the_text": "Antibacterial activities of GlcNAc derivatives towards H. pylori bacteria were investigated under in vivo by an experimental system using meriones unguiclatus infected orally with H. pylori bacteria.\nType strain of H. pylori bacteria (ATCC 43504 strain) was used as strain for infection. After stock strain thereof was recovered in Brain Heart Infusion (BHI) culture medium, which is available from Nissui Pharmaceutical Co., Ltd., including 10% horse serum, which is available from Dainippon Sumitomo Pharma Co., Ltd., and then cultured in the culture medium at 37° C. under microaerophilic condition using a microaerophilic incubator for 3 days. Finally the concentration thereof was adjusted to approximately 5×10^6 colony-forming-unit/mL (CFU/mL).\nThe meriones unguiculatus were fasted from 24 hours earlier of infection of Helicobacter pylori bacteria to 4 hours later of the infection thereof.\nApproximately 1.0 mL of the liquid culture medium including Helicobacter pylori bacteria was administrated orally as 5×10^6 CFU/individual-animal to the fasted meriones unguiculatus. The day of infection was defined as initial day (i.e. Day 0)\nSpecimens prepared by using GlcNAcl-beta-O-Et of N-acetyl-glucosamine derivative according to following concentration of each group were administered.\nNumber of animal: 10 animals per one group\nMeans for administration: dietary administration\nStomach was respectively isolated from thus 10 animals of each group, and added into a centrifuging tube containing 5 mL of a phosphate buffer solution (PBS) to be homogenized with Polytron Homogenizer. 0.1 mL of the obtained homogenate was spread on Poamedia Vi Helico-S agar medium which is available from Eiken Chemical Co., Ltd. And then the bacterium were cultured at 37° C. under microaerophilic condition as same as above-mentioned incubation for culture. The formed violet colonies were counted.\nThey were carried out by above-mentioned statistical procedure."}, "[3]": {"test": "Body weight and general remarks of symptoms of infected meriones unguiculatus under dietary administration", "description": "4 weeks-old male meriones unguiculatus (SPF: specific-pathogen free), which were purchased from Kyudo Co., Ltd. (Br. Yoshitomi), were preliminarily reared for 23 days and then used for the experiments. The meriones unguiculatus were reared temperature of 24 plus or minus 3° C. and under relative humidity of 55 plus or minus 15% in all room for infected animals with conditions of lighting from a.m. 7 to p.m. 7 and ventilating 18 times per hour during preliminarily reared period and experiment period. 2 or 3 meriones unguiculatus were reared in a cage. All meriones unguiculates could freely get purified water as drinkable water and powdery feed MF as dry feed which is available from Oriental Yeast Co., Ltd. Incidentally the meriones unguiculatus were marked by application of dyestuff of picric acid solution for individual discrimination.\nAmount of administration: 0.3% of the specimen blended with the powdery feed\nThe day of infection was defined as day 0. At 1st, 3rd, 6th, 10th, 13th, 17th, 20th, 24th, and 26th days, body weight was measured by a weight scale respectively.\nDaily variance of the general remarks of symptoms thereof was observed.\nAs regards to body weight and count of colonies, average plus/minus standard error thereof in all groups was respectively calculated. […]"}, "[4]": {"assay_type": "physicochemical", "experimental": "[…]-beta-O-Et in a defined constant amount of the H. pylori bacteria-containing culture medium, which was cultured for 3 days, was measured by high performance liquid chromatography. A concentration of […]-beta-O-Et therein was determined by conversion using a calibration curve which was beforehand prepared from various definite concentrations of standard […]-beta-O-Et and peak areas of high pressure liquid chromatogram thereof. According to the determination, 6% of […]-beta-O-Et in the defined constant amount of the H. pylori bacteria-containing culture medium was reduced in comparison with initial concentration thereof. Consequently it was obvious that 6% of […]-beta-O-Et in the H. pylori bacteria-containing culture medium was decomposed to GlcNAc and ethanol (EtOH)."}}, "data": [{"compound": "CC(=O)N[C@H]1C(O)O[C@H](CO)[C@@H](O)[C@@H]1O", "note": "(stereo partly drawn) [GlcNAc, N-acetyl-glucosamine, reference compound]", "values": [{"measurement": "proliferation inhibitory effect", "setting": "[1]; concentration as high as 50 mM, FIG. 2", "result": "does not show any proliferation inhibitory effect"}]}, {"compound": "CCO", "note": "[ethanol, reference compound]", "values": [{"measurement": "proliferation inhibitory effect", "setting": "[1]; 5 volume % (856 mM), FIG. 3", "result": "shows proliferation inhibitory effect barely"}]}, {"compound": "CCO[C@H]1O[C@H](CO)[C@@H](O)[C@H](O)[C@H]1NC(C)=O", "note": "[GlcNAcl-alpha-O-Et]", "values": [{"measurement": "effect on inhibiting the proliferation of H. pylori bacteria under in vitro", "setting": "[1]; in comparison with GlcNAcl-beta-O-Et, FIG. 6", "result": "did not almost indicate the effect"}, {"measurement": "statistical significant difference of the count of viable bacteria vs control group", "setting": "[2]; 300 mg/kg/day, FIG. 8", "result": "not observed at all"}, {"measurement": "count of H. pylori bacteria reduced in comparison with the control group", "setting": "[2]; 1000 mg/kg/day, FIG. 8", "result": "⅓"}, {"measurement": "statistical significant difference of the count of viable bacteria vs control group", "setting": "[2]; 1000 mg/kg/day, FIG. 8", "result": "eventually observed"}]}, {"compound": "CCO[C@@H]1O[C@H](CO)[C@@H](O)[C@H](O)[C@H]1NC(C)=O", "note": "[GlcNAcl-beta-O-Et, Ethoxy-2-acetamide-2-deoxy-N-acetyl-beta-D-glucosaminide]", "values": [{"measurement": "statistical significant difference of the body weight increase vs control group", "setting": "[3]; 300 mg/kg/day dietary administration (0.3% in feed), to day 26, FIG. 4", "result": "not observed"}, {"measurement": "abnormal general remarks of symptoms", "setting": "[3]; 300 mg/kg/day dietary administration, daily observation", "result": "could not be observed"}, {"measurement": "stability in the culture medium", "setting": "[4]", "result": "stable"}, {"measurement": "reduction of concentration in comparison with initial concentration (decomposed to GlcNAc and ethanol)", "setting": "[4]; H. pylori bacteria-containing culture medium cultured for 3 days, HPLC", "result": 6, "unit": "%"}, {"measurement": "proliferation ability of H. pylori bacteria", "setting": "[1]; culture medium containing not less than 5 mM", "result": "not more than 50%"}, {"measurement": "proliferation ability of H. pylori bacteria", "setting": "[1]; culture medium containing not less than 20 mM", "result": "not more than 5%"}, {"measurement": "H. pylori bacteria proliferation inhibited", "setting": "[1]; not less than 25 or 50 mM, cultivation 96 hours, vs negative control, FIG. 1", "result": "not less than 50%"}, {"measurement": "count of H. pylori bacteria reduced in comparison with the control group", "setting": "[2]; 300 mg/kg/day dietary, all individuals, FIG. 5(a)", "result": "½ to ⅓"}, {"measurement": "count of H. pylori bacteria reduced in comparison with the control group", "setting": "[2]; 300 mg/kg/day dietary, outliers rejected by Smirnov-Grubbs test, FIG. 5(b)", "result": "⅙"}]}]}
